# Experimental data as given in the kinase profiling compilation of Christmann-Franck et al. (2016).
# Tests used:
# Assay in all cases: radiometric filter-binding kinase assay
# EPHB3 (human) = EPHB3 (human) (UniProt P54753)
# MAP3K9 (human) = MAP3K9 (human) (UniProt P80192)
# PKN2 (human) = PKN2 (human) (UniProt Q16513)
# MAP3K11 (human) = MAP3K11 (human) (UniProt Q16584)
# BRSK1 (human) = BRSK1 (human) (UniProt Q8TDC3)
# PIM1 (human) = PIM1 (human) (UniProt P11309)
# PAK6 (human) = PAK6 (human) (UniProt Q9NQU5)
# NUAK1 (human) = NUAK1 (human) (UniProt O60285)
# AURKA (human) = AURKA (human) (UniProt O14965)
# DYRK2 (human) = DYRK2 (human) (UniProt Q92630)
# Sequence of DYRK2 (human) (Q92630 whole entry, looked up): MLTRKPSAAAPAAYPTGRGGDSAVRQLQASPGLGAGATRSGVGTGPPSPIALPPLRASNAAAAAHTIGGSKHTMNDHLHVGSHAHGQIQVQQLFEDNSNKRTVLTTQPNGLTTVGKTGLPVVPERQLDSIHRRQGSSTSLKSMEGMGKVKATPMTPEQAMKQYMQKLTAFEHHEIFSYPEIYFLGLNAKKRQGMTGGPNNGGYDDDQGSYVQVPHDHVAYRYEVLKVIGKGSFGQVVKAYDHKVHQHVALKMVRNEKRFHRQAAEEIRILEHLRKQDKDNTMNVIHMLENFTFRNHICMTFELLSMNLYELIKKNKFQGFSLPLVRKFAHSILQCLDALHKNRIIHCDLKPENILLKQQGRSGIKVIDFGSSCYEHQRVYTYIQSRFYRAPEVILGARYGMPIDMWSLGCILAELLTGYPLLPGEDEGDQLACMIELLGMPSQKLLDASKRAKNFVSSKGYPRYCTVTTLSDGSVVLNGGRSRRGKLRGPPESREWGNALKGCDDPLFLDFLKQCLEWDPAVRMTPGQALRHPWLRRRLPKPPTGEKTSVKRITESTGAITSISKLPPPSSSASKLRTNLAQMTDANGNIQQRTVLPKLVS
# [1] = target: STK11 CAB39 STRADA (human) (UniProt Q9Y376+Q7RTN6+Q15831)
# NTRK1 (human) = NTRK1 (human) (UniProt P04629)
# MAPKAPK2 (human) = MAPKAPK2 (human) (UniProt P49137)
# Sequence of MAPKAPK2 (human) (P49137 whole entry, looked up): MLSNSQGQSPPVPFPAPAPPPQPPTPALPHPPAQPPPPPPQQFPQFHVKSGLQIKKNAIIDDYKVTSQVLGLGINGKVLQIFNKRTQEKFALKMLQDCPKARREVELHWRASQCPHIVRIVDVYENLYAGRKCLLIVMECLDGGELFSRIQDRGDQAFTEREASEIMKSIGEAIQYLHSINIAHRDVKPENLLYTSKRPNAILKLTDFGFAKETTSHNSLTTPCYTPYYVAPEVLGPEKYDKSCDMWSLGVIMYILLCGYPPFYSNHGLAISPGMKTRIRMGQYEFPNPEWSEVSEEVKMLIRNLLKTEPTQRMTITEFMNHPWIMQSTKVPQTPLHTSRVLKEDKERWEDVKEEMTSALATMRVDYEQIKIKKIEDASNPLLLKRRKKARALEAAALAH
# EPHA2 (human) = EPHA2 (human) (UniProt P29317)
# INSR (human) = INSR (human) (UniProt P06213)
# Sequence of INSR (human) (P06213 whole entry, looked up): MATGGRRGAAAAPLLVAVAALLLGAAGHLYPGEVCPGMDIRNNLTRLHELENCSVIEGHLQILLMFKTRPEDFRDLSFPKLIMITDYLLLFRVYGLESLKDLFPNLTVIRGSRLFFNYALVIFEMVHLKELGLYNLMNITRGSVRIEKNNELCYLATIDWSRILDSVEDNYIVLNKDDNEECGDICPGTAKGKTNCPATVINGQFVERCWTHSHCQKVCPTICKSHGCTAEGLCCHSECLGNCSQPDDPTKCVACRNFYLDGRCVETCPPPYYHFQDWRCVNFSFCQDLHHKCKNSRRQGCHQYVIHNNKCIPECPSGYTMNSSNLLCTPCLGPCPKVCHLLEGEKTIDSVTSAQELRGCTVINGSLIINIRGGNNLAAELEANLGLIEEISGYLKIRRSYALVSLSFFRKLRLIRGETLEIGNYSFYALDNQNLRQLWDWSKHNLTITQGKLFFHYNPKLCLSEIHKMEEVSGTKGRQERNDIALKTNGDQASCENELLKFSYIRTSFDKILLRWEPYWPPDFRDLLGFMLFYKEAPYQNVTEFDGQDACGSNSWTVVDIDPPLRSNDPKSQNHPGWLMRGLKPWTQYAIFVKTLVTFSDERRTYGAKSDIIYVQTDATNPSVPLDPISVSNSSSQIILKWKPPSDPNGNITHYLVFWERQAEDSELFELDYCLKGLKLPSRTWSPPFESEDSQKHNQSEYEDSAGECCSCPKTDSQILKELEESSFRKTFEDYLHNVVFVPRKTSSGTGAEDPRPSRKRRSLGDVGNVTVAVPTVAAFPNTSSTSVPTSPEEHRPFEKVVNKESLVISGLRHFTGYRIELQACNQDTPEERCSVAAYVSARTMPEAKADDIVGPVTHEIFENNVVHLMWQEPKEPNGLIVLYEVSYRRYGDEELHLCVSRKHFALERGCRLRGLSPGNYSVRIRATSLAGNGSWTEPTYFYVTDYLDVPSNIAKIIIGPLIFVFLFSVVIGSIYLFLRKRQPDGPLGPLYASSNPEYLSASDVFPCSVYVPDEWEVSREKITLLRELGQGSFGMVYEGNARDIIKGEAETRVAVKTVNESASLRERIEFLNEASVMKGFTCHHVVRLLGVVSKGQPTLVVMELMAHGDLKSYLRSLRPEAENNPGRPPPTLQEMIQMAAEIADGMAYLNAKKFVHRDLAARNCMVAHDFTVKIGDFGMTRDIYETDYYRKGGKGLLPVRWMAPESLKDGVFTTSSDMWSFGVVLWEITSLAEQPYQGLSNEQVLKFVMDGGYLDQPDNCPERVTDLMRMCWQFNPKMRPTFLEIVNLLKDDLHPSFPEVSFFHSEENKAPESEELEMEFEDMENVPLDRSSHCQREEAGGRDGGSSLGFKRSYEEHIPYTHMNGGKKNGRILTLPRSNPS
# MST4 (human) = MST4 (human) (UniProt Q9P289)
# PRKCZ (human) = PRKCZ (human) (UniProt Q05513)
# MARK4 (human) = MARK4 (human) (UniProt Q96L34)
# Sequence of MARK4 (human) (Q96L34 whole entry, looked up): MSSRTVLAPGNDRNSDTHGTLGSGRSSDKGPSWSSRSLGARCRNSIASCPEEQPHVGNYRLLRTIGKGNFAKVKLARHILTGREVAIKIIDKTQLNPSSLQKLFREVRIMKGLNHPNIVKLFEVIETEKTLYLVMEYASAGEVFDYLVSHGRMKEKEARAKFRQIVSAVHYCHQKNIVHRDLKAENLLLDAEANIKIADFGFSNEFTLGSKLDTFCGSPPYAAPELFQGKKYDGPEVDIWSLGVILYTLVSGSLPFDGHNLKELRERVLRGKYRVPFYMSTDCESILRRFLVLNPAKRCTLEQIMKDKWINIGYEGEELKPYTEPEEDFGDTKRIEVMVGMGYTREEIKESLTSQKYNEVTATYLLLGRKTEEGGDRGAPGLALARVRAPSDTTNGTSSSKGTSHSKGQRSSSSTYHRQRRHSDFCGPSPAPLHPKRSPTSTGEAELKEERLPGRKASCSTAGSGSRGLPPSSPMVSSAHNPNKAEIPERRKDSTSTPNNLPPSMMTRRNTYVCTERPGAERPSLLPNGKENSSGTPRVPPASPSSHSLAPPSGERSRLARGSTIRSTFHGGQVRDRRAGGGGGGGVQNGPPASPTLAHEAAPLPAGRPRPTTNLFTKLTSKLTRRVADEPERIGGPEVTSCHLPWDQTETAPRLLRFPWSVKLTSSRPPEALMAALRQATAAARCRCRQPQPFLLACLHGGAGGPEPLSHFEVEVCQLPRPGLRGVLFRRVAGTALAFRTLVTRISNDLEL
# MAP3K1 (human) = MAP3K1 (human) (UniProt Q13233)
# MARK2 (human) = MARK2 (human) (UniProt Q7KZI7)
# MAP3K5 (human) = MAP3K5 (human) (UniProt Q99683)
# [2] = system: AKT1 (human), P31749 [S473D]
# HIPK3 (human) = HIPK3 (human) (UniProt Q9H422)
# EEF2K (human) = EEF2K (human) (UniProt O00418)
# MARK1 (human) = MARK1 (human) (UniProt Q9P0L2)
# MAPK9 (human) = MAPK9 (human) (UniProt P45984)
# PAK4 (human) = PAK4 (human) (UniProt O96013)
# MAPK12 (human) = MAPK12 (human) (UniProt P53778)
# Sequence of MAPK12 (human) (P53778 whole entry, looked up): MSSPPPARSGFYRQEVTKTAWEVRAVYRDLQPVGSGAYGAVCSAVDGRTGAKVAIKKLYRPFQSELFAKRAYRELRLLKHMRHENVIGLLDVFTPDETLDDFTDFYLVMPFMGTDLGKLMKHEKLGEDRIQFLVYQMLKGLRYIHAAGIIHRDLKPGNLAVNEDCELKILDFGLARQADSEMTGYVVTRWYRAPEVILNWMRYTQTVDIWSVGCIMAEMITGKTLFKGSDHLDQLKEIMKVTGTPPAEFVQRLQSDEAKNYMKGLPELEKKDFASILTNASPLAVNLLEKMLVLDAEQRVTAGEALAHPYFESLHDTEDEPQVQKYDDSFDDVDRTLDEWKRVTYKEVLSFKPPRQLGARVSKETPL
# ERBB4 (human) = ERBB4 (human) (UniProt Q15303)
# IRAK4 (human) = IRAK4 (human) (UniProt Q9NWZ3)
# MELK (human) = MELK (human) (UniProt Q14680)
# GSK3B (human) = GSK3B (human) (UniProt P49841)
# Sequence of GSK3B (human) (P49841 whole entry, looked up): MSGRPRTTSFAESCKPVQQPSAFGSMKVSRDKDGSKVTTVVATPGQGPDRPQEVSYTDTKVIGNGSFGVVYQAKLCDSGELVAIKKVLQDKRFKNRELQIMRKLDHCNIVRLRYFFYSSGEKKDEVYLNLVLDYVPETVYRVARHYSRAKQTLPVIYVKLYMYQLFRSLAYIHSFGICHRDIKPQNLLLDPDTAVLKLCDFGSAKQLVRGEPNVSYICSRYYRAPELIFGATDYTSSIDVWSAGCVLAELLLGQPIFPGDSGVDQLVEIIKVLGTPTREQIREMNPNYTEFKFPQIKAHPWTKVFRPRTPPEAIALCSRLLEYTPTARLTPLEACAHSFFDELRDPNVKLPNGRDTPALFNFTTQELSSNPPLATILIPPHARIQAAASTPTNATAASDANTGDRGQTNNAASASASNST
# MAP2K6 (human) = MAP2K6 (human) (UniProt P52564)
# MAP3K7 TAB1 (human) = MAP3K7 TAB1 (human) (UniProt Q15750+O43318)
# PRKCA (human) = PRKCA (human) (UniProt P17252)
# MAP2K2 (human) = MAP2K2 (human) (UniProt P36507)
# Sequence of EPHB3 (human) (P54753 whole entry, looked up): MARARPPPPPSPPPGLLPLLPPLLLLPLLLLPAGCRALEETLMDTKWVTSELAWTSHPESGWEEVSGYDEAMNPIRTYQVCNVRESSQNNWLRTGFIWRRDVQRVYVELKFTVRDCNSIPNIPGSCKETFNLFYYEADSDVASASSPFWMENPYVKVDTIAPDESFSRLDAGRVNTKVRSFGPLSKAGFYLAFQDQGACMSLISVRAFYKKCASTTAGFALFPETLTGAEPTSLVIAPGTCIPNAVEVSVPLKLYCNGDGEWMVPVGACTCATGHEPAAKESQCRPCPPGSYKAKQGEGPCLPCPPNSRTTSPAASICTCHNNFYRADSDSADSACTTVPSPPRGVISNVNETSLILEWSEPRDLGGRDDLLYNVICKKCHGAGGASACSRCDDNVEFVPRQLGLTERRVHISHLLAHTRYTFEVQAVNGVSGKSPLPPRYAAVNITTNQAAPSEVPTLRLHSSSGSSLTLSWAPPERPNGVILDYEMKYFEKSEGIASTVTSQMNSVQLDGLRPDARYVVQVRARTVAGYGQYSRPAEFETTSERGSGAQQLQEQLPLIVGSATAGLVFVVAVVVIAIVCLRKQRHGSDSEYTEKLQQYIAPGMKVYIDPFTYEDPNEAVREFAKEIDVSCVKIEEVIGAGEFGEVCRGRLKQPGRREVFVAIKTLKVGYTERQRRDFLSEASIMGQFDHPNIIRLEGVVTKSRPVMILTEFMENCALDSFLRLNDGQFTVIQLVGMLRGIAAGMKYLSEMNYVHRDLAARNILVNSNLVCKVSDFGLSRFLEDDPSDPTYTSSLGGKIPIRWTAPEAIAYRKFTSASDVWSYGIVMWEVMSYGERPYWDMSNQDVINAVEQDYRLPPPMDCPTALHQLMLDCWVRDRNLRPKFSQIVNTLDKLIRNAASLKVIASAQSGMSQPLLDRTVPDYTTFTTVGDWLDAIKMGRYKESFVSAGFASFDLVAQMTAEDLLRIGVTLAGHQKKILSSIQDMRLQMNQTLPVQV
structure (smiles),measurement,setting,value
CNC(=O)C1[C@H]2O[C@@](C)([C@@H]1N)n1c3ccccc3c3c4c(c5c6ccccc6n2c5c31)C(=O)NC4 (some centres not stated),residual activity,EPHB3 (human); compound 0.01 µM,106%
same,residual activity,EPHB3 (human); compound 0.1 µM,100%
same,residual activity,EPHB3 (human); compound 1.0 µM,83%
same,residual activity,MAP3K9 (human); compound 0.01 µM,3%
same,residual activity,MAP3K9 (human); compound 0.1 µM,2%
same,residual activity,MAP3K9 (human); compound 1.0 µM,2%
same,residual activity,PKN2 (human); compound 0.01 µM,21%
same,residual activity,PKN2 (human); compound 0.1 µM,8%
same,residual activity,PKN2 (human); compound 1.0 µM,6%
same,residual activity,MAP3K11 (human); compound 0.01 µM,17%
same,residual activity,MAP3K11 (human); compound 0.1 µM,5%
same,residual activity,MAP3K11 (human); compound 1.0 µM,3%
same,residual activity,BRSK1 (human); compound 0.01 µM,61%
same,residual activity,BRSK1 (human); compound 0.1 µM,3%
same,residual activity,BRSK1 (human); compound 1.0 µM,1%
same,residual activity,PIM1 (human); compound 0.01 µM,71%
same,residual activity,PIM1 (human); compound 0.1 µM,16%
same,residual activity,PIM1 (human); compound 1.0 µM,1%
same,residual activity,PAK6 (human); compound 0.01 µM,29%
same,residual activity,PAK6 (human); compound 0.1 µM,2%
same,residual activity,PAK6 (human); compound 1.0 µM,1%
same,residual activity,NUAK1 (human); compound 0.01 µM,2%
same,residual activity,NUAK1 (human); compound 0.1 µM,2%
same,residual activity,NUAK1 (human); compound 1.0 µM,1%
same,residual activity,AURKA (human); compound 0.01 µM,28%
same,residual activity,AURKA (human); compound 0.1 µM,4%
same,residual activity,AURKA (human); compound 1.0 µM,5%
same,residual activity,DYRK2 (human); compound 0.01 µM,41%
same,residual activity,DYRK2 (human); compound 0.1 µM,9%
same,residual activity,DYRK2 (human); compound 1.0 µM,4%
same,residual activity,[1]; compound 0.01 µM,103%
same,residual activity,[1]; compound 0.1 µM,50%
same,residual activity,[1]; compound 1.0 µM,35%
same,residual activity,NTRK1 (human); compound 0.01 µM,5%
same,residual activity,NTRK1 (human); compound 0.1 µM,3%
same,residual activity,NTRK1 (human); compound 1.0 µM,2%
same,residual activity,MAPKAPK2 (human); compound 0.01 µM,19%
same,residual activity,MAPKAPK2 (human); compound 0.1 µM,0%
same,residual activity,MAPKAPK2 (human); compound 1.0 µM,-1%
same,residual activity,EPHA2 (human); compound 0.01 µM,92%
same,residual activity,EPHA2 (human); compound 0.1 µM,53%
same,residual activity,EPHA2 (human); compound 1.0 µM,19%
same,residual activity,INSR (human); compound 0.01 µM,120%
same,residual activity,INSR (human); compound 0.1 µM,76%
same,residual activity,INSR (human); compound 1.0 µM,11%
same,residual activity,MST4 (human); compound 0.01 µM,86%
same,residual activity,MST4 (human); compound 0.1 µM,26%
same,residual activity,MST4 (human); compound 1.0 µM,20%
same,residual activity,PRKCZ (human); compound 0.01 µM,110%
same,residual activity,PRKCZ (human); compound 0.1 µM,56%
same,residual activity,PRKCZ (human); compound 1.0 µM,15%
same,residual activity,MARK4 (human); compound 0.01 µM,10%
same,residual activity,MARK4 (human); compound 0.1 µM,2%
same,residual activity,MARK4 (human); compound 1.0 µM,1%
same,residual activity,MAP3K1 (human); compound 0.01 µM,97%
same,residual activity,MAP3K1 (human); compound 0.1 µM,78%
same,residual activity,MAP3K1 (human); compound 1.0 µM,23%
same,residual activity,MARK2 (human); compound 0.01 µM,11%
same,residual activity,MARK2 (human); compound 0.1 µM,5%
same,residual activity,MARK2 (human); compound 1.0 µM,4%
same,residual activity,MAP3K5 (human); compound 0.01 µM,113%
same,residual activity,MAP3K5 (human); compound 0.1 µM,15%
same,residual activity,MAP3K5 (human); compound 1.0 µM,2%
same,residual activity,[2]; compound 0.01 µM,93%
same,residual activity,[2]; compound 0.1 µM,44%
same,residual activity,[2]; compound 1.0 µM,5%
same,residual activity,HIPK3 (human); compound 0.01 µM,83%
same,residual activity,HIPK3 (human); compound 0.1 µM,43%
same,residual activity,HIPK3 (human); compound 1.0 µM,10%
same,residual activity,EEF2K (human); compound 0.01 µM,105%
same,residual activity,EEF2K (human); compound 0.1 µM,97%
same,residual activity,EEF2K (human); compound 1.0 µM,79%
same,residual activity,MARK1 (human); compound 0.01 µM,11%
same,residual activity,MARK1 (human); compound 0.1 µM,5%
same,residual activity,MARK1 (human); compound 1.0 µM,5%
same,residual activity,MAPK9 (human); compound 0.01 µM,101%
same,residual activity,MAPK9 (human); compound 0.1 µM,98%
same,residual activity,MAPK9 (human); compound 1.0 µM,4%
same,residual activity,PAK4 (human); compound 0.01 µM,25%
same,residual activity,PAK4 (human); compound 0.1 µM,7%
same,residual activity,PAK4 (human); compound 1.0 µM,7%
same,residual activity,MAPK12 (human); compound 0.01 µM,76%
same,residual activity,MAPK12 (human); compound 0.1 µM,29%
same,residual activity,MAPK12 (human); compound 1.0 µM,6%
same,residual activity,ERBB4 (human); compound 0.01 µM,96%
same,residual activity,ERBB4 (human); compound 0.1 µM,63%
same,residual activity,ERBB4 (human); compound 1.0 µM,14%
same,residual activity,IRAK4 (human); compound 0.01 µM,7%
same,residual activity,IRAK4 (human); compound 0.1 µM,7%
same,residual activity,IRAK4 (human); compound 1.0 µM,4%
same,residual activity,MELK (human); compound 0.01 µM,18%
same,residual activity,MELK (human); compound 0.1 µM,10%
same,residual activity,MELK (human); compound 1.0 µM,5%
same,residual activity,GSK3B (human); compound 0.01 µM,51%
same,residual activity,GSK3B (human); compound 0.1 µM,15%
same,residual activity,GSK3B (human); compound 1.0 µM,7%
same,residual activity,MAP2K6 (human); compound 0.01 µM,10%
same,residual activity,MAP2K6 (human); compound 0.1 µM,13%
same,residual activity,MAP2K6 (human); compound 1.0 µM,5%
same,residual activity,MAP3K7 TAB1 (human); compound 0.01 µM,111%
same,residual activity,MAP3K7 TAB1 (human); compound 0.1 µM,2%
same,residual activity,MAP3K7 TAB1 (human); compound 1.0 µM,2%
same,residual activity,PRKCA (human); compound 0.01 µM,79%
same,residual activity,PRKCA (human); compound 0.1 µM,44%
same,residual activity,MAP2K2 (human); compound 0.01 µM,32%
same,residual activity,MAP2K2 (human); compound 0.1 µM,17%
same,residual activity,MAP2K2 (human); compound 1.0 µM,14%
